Assay results reported in patent publication US20260209211A1, “CYCLIN K DEGRADER AND USE THEREOF” (ADLAI NORTYE BIOPHARMA CO., LTD., priority 2022, published 2026).
Where two headings read alike, the source gives them in different places.

Assays:
[1] = system: NCI-N87 (Human Gastric Cancer Cell); test: Bioactivity detection of NCI-N87 cell growth inhibition (CellTiter-Glo); assay type: cell-based; conditions: NCI-N87 cells, 72 hours, highest concentration 10 μM, read-out: N87 CTG IC50
Procedure: This detection method is used to evaluate the biological activity of the compounds described in this disclosure at the cellular level.
(§1) NCI-N87 cells (purchased from the Chinese Academy of Sciences) were harvested, resuspended in complete medium and adjusted to a cell density of 0.1×10^6 cells per ml. The cell suspension was added to a 96-well plate at a volume of 100 μL per well and cultured overnight in a 37° C., 5% CO2 incubator. Prepare the test compound and add it to the cell plate so that the highest concentration of the compound is 10 μM. Set 8 concentration points according to 3-fold dilution. At the same time, 100% inhibition control wells were set, that is, wells with no cells but only an equal volume of complete culture medium; and 0% inhibition control wells, that is, wells with cells added with 0.1% DMSO. The cell plate was cultured at 37° C. and 5% CO2 for 72 hours. Remove the cell culture plate and add 25 μl CellTiter-Glo Luminescent Cell Viability Reagent (promega cat #G7573) to each well. Incubate in the dark for 10 minutes and then transfer 100 μL to a white plate and use Molecular Devices SpectraMax i3 to detect chemiluminescence. The inhibition rate was calculated using the following formula for data processing: compound inhibition rate=(0% inhibition control well signal−compound treatment well signal)/(0% inhibition control well signal−100% inhibition control well signal)*10000. The calculated data were fitted with four parameters using GraphPad Prism software and the corresponding IC50 was calculated.

[2] = system: HGC27 (Human Gastric Cancer Cell); test: Bioactivity assay for HGC27 cell growth inhibition (CellTiter-Glo); assay type: cell-based; conditions: read-out: HGC27 CTG IC50
Procedure: This detection method is used to evaluate the biological activity of the compounds of the present disclosure at the cellular level.
as §1, with “HGC27” for “NCI-N87”, “0.2×10^6” for “0.1×10^6”, “24” for “72”, “CellTiter-Glo®” for “CellTiter-Glo”, “signal)*100%.” for “signal)*10000.”

[3] = HGC-27, HGC27 cells, 24 hours, CellTiter-Glo, highest concentration 10 μM

Structure (SMILES) | IC50 [1] [nM] | IC50 [2, 3] [nM] | IC50 ([2]; HGC-27, 24 h) [nM]
FC(F)(F)c1cnc(NCc2ccc3c(c2)[nH]c2cccnc23)nc1OC1COC1 [Compound 2] | 26 | 139 | –
Cn1c2cc(CNc3ncc(C(F)(F)F)c(OC4COC4)n3)ccc2c2ncccc21 [Compound 3] | – | 342 | –
CC[C@@H](Nc1nc(NCc2ccc3c(c2)[nH]c2cccnc23)ncc1C(F)(F)F)C(N)=O [Compound 4] | – | 238 | –
C[C@@H](O)[C@@H](CO)Nc1nc(NCc2ccc3c(c2)[nH]c2cccnc23)ncc1C(F)(F)F [Compound 5] | – | 30 | –
Cc1ccnc2c1[nH]c1cc(CNc3ncc(C(F)(F)F)c(OC4COC4)n3)ccc12 [Compound 6] | – | 145 | –
OCc1ccnc2c1[nH]c1cc(CNc3ncc(C(F)(F)F)c(OC4COC4)n3)ccc12 [Compound 7] | – | 43 | –
Cc1ccc2[nH]c3cc(CNc4ncc(C(F)(F)F)c(OC5COC5)n4)ccc3c2n1 [Compound 8] | – | 308 | –
FC(F)(F)c1cnc(NCc2ccc3c(c2)oc2cccnc23)nc1OC1COC1 [Compound 9] | – | 292 | –
FC(F)(F)c1cnc(NCc2ccc3c(n2)[nH]c2cccnc23)nc1OC1COC1 [Compound 10] | – | 225 | –
C[C@@H](O)[C@@H](C)Oc1nc(NCc2ccc3c(c2)[nH]c2cccnc23)ncc1C(F)(F)F [Compound 11] | – | 62 | –
C[C@@H](O)[C@@H](CO)Nc1nc(NCc2ccc3c(c2)[nH]c2c(CO)ccnc23)ncc1C(F)(F)F [Compound 13] | 13 | 41 | –
FC(F)(F)c1cnc(NCc2ccc3c(c2)[nH]c2ncsc23)nc1OC1COC1 [Compound 14] | – | 75 | –
Cc1cc2c(cc1CNc1ncc(C(F)(F)F)c(OC3COC3)n1)[nH]c1cccnc12 [Compound 16] | – | 520 | –
NCc1ccnc2c1[nH]c1cc(CNc3ncc(C(F)(F)F)c(OC4COC4)n3)ccc12 [Compound 19] | – | 62 | –
FC(F)(F)c1cnc(NCc2cc3[nH]c4cccnc4c3s2)nc1OC1COC1 [Compound 20] | – | 454 | –
CC[C@@H](Nc1nc(NCc2ccc3c(c2)[nH]c2c(CO)ccnc23)ncc1C(F)(F)F)[C@@H](C)O [Compound 23] | – | 13 | –

Structure (SMILES) | IC50 [1] [nM] | IC50 [2, 3] [nM] | IC50 ([2]; HGC-27, 24 h) [nM]
N#Cc1cccc2c3ccc(CNc4ncc(C(F)(F)F)c(OC5COC5)n4)cc3nn12 [Compound 24] | – | 80 | –
OCc1cccc2c3ccc(CNc4ncc(C(F)(F)F)c(OC5COC5)n4)cc3nn12 [Compound 26] | – | 387 | –
C[C@@H](O)[C@@H](C)Oc1nc(NCc2ccc3c(c2)[nH]c2c(CN)ccnc23)ncc1C(F)(F)F [Compound 27] | – | 21 | –
NCc1cccc2c3ccc(CNc4ncc(C(F)(F)F)c(OC5COC5)n4)cc3nn12 [Compound 28] | – | 313 | –
FC(F)(F)c1cnc(NCc2ccc3c(c2)[nH]c2scnc23)nc1OC1COC1 [Compound 29] | – | 374 | –
CC[C@@H](Nc1nc(NCc2ccc3c(c2)[nH]c2c(CN)ccnc23)ncc1C(F)(F)F)C(N)=O [Compound 33] | 10 | 32 | –
C[C@@H](O)[C@@H](C)Nc1nc(NCc2ccc3c(c2)[nH]c2c(CN)ccnc23)ncc1C(F)(F)F [Compound 34] | 1.7 | 7 | –
COc1ccnc2c1[nH]c1cc(CNc3ncc(C(F)(F)F)c(OC4COC4)n3)ccc12 [Compound 35] | – | 120 | –
FC(F)(F)c1cnc(NCc2ccc3c(c2)nn2cccnc32)nc1OC1COC1 [Compound 36] | – | – | 133
OCc1ccnc2c3ccc(CNc4ncc(C(F)(F)F)c(OC5COC5)n4)cc3nn12 [Compound 39] | 9 | 54 | –
CC[C@@H](Nc1nc(NCc2ccc3c(c2)nn2c(CO)ccnc32)ncc1C(F)(F)F)C(N)=O [Compound 40] | 7 | 121 | –
NCc1ccnc2c1[nH]c1cc(CNc3ncc(C(F)(F)F)c(N[C@@H](C(N)=O)C4CC4)n3)ccc12 [Compound 42] | 13 | 20 | –
FC(F)(F)c1cnc(NCc2ccc3c(c2)[nH]c2ncccc23)nc1OC1COC1 [Compound 45] | – | 89 | –
C[C@@H](Nc1nc(NCc2ccc3c(c2)[nH]c2c(CO)ccnc23)ncc1C(F)(F)F)C(N)=O [Compound 46] | – | 79 | –
FC(F)(F)c1cnc(NCc2ccc3c(c2)nn2ccncc32)nc1OC1COC1 [Compound 49] | – | – | 510
CC(C)(C)[C@@H](Nc1nc(NCc2ccc3c(c2)[nH]c2c(CN)ccnc23)ncc1C(F)(F)F)C(N)=O [Compound 55] | 19 | – | 26

More lines, main results first:

IC50 [1] [nM] | IC50 [2, 3] [nM] | Structure (SMILES) | IC50 ([2]; HGC-27, 24 h) [nM]
– | 266 | CC[C@@H](Nc1nc(NCc2ccc3c(c2)[nH]c2c(CNC(C)=O)ccnc23)ncc1C(F)(F)F)C(N)=O [Compound 47] | –
20 | 53 | CC(C)[C@@H](Nc1nc(NCc2ccc3c(c2)[nH]c2c(CN)ccnc23)ncc1C(F)(F)F)C(N)=O [Compound 48] | –
– | 257 | CC(C)[C@@H](Nc1nc(NCc2ccc3c(c2)nn2c(CO)ccnc32)ncc1C(F)(F)F)C(N)=O [Compound 50] | –
– | 145 | FC(F)(F)c1cnc(NCc2ccc3c(c2)nc2cccnn23)nc1OC1COC1 [Compound 51] | –
32 | 39 | NCc1ccnc2c1[nH]c1cc(CNc3ncc(C(F)(F)F)c(N[C@@H](C(N)=O)C4CCCC4)n3)ccc12 [Compound 52] | –
48 | 29 | NCc1ccnc2c1[nH]c1cc(CNc3ncc(C(F)(F)F)c(N[C@H](CC4CC4)C(N)=O)n3)ccc12 [Compound 53] | –
32 | 32 | CCC[C@@H](Nc1nc(NCc2ccc3c(c2)[nH]c2c(CN)ccnc23)ncc1C(F)(F)F)C(N)=O [Compound 54] | –
30 | 25 | NCc1ccnc2c1[nH]c1cc(CNc3ncc(C(F)(F)F)c(N[C@@H](C(N)=O)C4CCC4)n3)ccc12 [Compound 56] | –
11 | 14 | CO[C@@H](C)[C@@H](Nc1nc(NCc2ccc3c(c2)[nH]c2c(CN)ccnc23)ncc1C(F)(F)F)C(N)=O [Compound 57] | –
58 | 114 | CC(C)(O)[C@@H](Nc1nc(NCc2ccc3c(c2)[nH]c2c(CN)ccnc23)ncc1C(F)(F)F)C(N)=O [Compound 58] | –
1.8 | 13 | C[C@@H](O)[C@@H](C)Nc1nc(NCc2ccc3c(c2)nn2c(CO)ccnc32)ncc1C(F)(F)F [Compound 60] | –
48 | 70 | CC[C@@H](Nc1nc(NCc2ccc3c(c2)nn2c(CN)ccnc32)ncc1C(F)(F)F)C(N)=O [Compound 62] | –
15 | 20 | C[C@@H](O)[C@@H](C)Nc1nc(NCc2ccc3c(c2)nn2c(CN)ccnc32)ncc1C(F)(F)F [Compound 63] | –
2.5 | 14 | CO[C@@H](C)[C@@H](Nc1nc(NCc2ccc3c(c2)[nH]c2c(C#N)ccnc23)ncc1C(F)(F)F)C(N)=O [Compound 67] | –
– | 48 | N#Cc1ccnc2c1[nH]c1cc(CNc3ncc(C(F)(F)F)c(N[C@@H]4CN(C(=O)CO)CC[C@@H]4O)n3)ccc12 [Compound 92] | –
– | 110 | N#Cc1ccnc2c3ccc(CNc4ncc(C(F)(F)F)c(N[C@@H]5CNCC[C@@H]5O)n4)cc3nn12 [Compound 96] | –
117 | – | CC[C@@H](Nc1nc(NCc2ccc3c(c2)[nH]c2c(CO)ccnc23)ncc1C(F)(F)F)C(=O)NC [Compound 99] | –
112 | – | CC[C@@H](Nc1nc(NCc2ccc3c(c2)[nH]c2c(CO)ccnc23)ncc1C(F)(F)F)C(=O)N(C)C [Compound 100] | –
